pKMCS data for two substances are collected here from US5869449A, “38-decarboxy-38-hydroxymethyl derivatives of teiocoplanin antibiotics and a process for preparing them” (Gruppo Lepetit S.P.A., priority 1990, dated 1999).

A short description of this data set: Acid-base titration (pK MCS). The format is physicochemical. Particulars: methyl cellosolve (MCS) H2O 4/1, excess 0.01M HCl, titrated with 0.01N NaOH; one basic ionizable function.

As for “38-Decarboxy-38-hydroxymethyl of teicoplanin pseudoaglycon 2 [Example 3]”, the pKMCS is 6.8.

“38-Decarboxy-38-hydroxymethyl of teicoplanin pseudoaglycon 1 [Example 2]” displayed a pKMCS of 6.9.
